US9096539B2, “Substituted 4,5-dihydro-2H-benzo[e]indazole-9-carboxylates for the treatment of diabetes and related disorders” (Council of Scientific & Industrial Research, priority 2012, dated 2015)
Read-outs that look alike come from different tables or passages of the source. One block for each molecule: values may come before it.

Experiments:
[1] = tested on: sucrose loaded normoglycaemic rats; experiment: Antihyperglycaemic activity on sucrose loaded normoglycaemic rats (SLM); type: in vivo, rat; conditions: sucrose loaded normoglycaemic rats, compounds 100 mg/kg, Januvia 50 mg/kg; for Blood Glucose Profile 0 min: 0 min (fasting baseline); for Blood Glucose Profile 120 min: 120 min post sucrose
Method: (§1) The test compounds and standard antidiabetic drug Januvia were prepared in 1.0% freshly prepared Gum acacia.
Assessment of Test Compounds for Antihyperglycaemic Activity on Sucrose Loaded Normoglycaemic Rats—
In order to search towards the antidiabetic activity, synthetic compounds were preliminary evaluated for their effect on glucose tolerance in normal rats. It is an indirect effect of measuring antihyperglycaemic activity. Male albino rats of Wistar strain of body weight 160±20 g were selected for this study. The blood glucose of each animal was checked by glucometer using glucostrips (Accu-check) after 16 hours starvation. Animals showing blood glucose between 60 to 80 mg/dl (3.33 to 4.44 mM) were divided into groups of five to six animals in each. Rats of experimental group were administered suspension of the desired test compound orally (made in 1.0% gum acacia). The standard dose decided for Synthetic compounds is 100 mg/kg body weight. Animals of control group were given an equal amount of 1.0% gum acacia. A sucrose load (10.0 g/kg) was given to each animal orally exactly after 30 min post administration of the test sample/vehicle. Blood glucose profile of each rat was again determined at 30, 60, 90 and 120 min post administration of sucrose by glucometer. Food but not water was withheld from the cages during the course of experimentation. Quantitative glucose tolerance of each animal was calculated by area under curve (AUC) method using Prism Software. Comparing the AUC of experimental and control groups determined the percentage antihyperglycaemic activity. Statistical comparison was made by Dunnett's test.
(§2) Quantitative glucose tolerance of each animal was calculated by the area under the curve (AUC) method using Prism Software. The area under the curve of the control group and the experimental group was compared to determine the percent antihyperglycaemic activity. Statistical comparisons were performed by one-way analysis of variance (ANOVA), followed by Dunnett's multiple range test (DMRT). The results were considered statistically significant if the ‘p’ values were 0.05 or less. Results were expressed as mean±SEM.

[2] = tested on: sucrose challenged STZ induced diabetic rats; experiment: Antihyperglycaemic activity in sucrose challenged streptozotocin (STZ)-induced diabetic rats (STZ-S); type: in vivo, rat; conditions: compounds 100 mg/kg, Januvia 50 mg/kg
Method: The test compounds and standard antidiabetic drug Januvia were prepared in 1.0% freshly prepared Gum acacia. Assessment of Test Compounds for Antihyperglycaemic Activity in Sucrose Challenged Streptozotocin STZ-Induced Diabetic Rats— Induction of Diabetes in Rats: Overnight starved male albino rats of Sprague Dawley strain were used and Diabetes was induced in the animals by single intraperitoneal injection of Streptozotocin at 60 mg/kg body weight dose prepared in 0.1M citrate buffer (pH 4.5). Fasting blood glucose level was measured by using a Glucometer (ACCU-CHEK II; […] Grouping and Treatment: […] All the diabetic animals were again divided into groups with five animals in each group. Animals of one group were regarded as the control group (orally administered 1% gum acacia) and the others were treated as the experimental groups. […] Animals of the control group were given an equal amount of 1.0% gum acacia. The standard antidiabetic drug Januvia was given to the animals at an oral dose of 50 mg/kg body weight. […] Food but not water was withheld from the cages during the course of experimentation. Percent hyperglycemic activity was determined by comparing the AUC (area under curve) of experimental groups with that of the vehicle treated control group. Quantitative glucose tolerance of each animal was calculated by the area under the curve (AUC) method using Prism Software. The area under the curve of the control group and the experimental group was compared to determine the percent antihyperglycaemic activity. Statistical comparisons were performed by one-way analysis of variance (ANOVA), followed by Dunnett's multiple range test (DMRT). […] Results were expressed as mean±SEM.

[3] = tested on: low dosed STZ induced diabetic rats; experiment: Antihyperglycaemic activity in low dosed streptozotocin induced diabetic rats (STZ); type: in vivo, rat; conditions: low dosed STZ diabetic rats, compounds 100 mg/kg, Januvia 50 mg/kg
Method: as §1
Assessment of Test Compounds for Antihyperglycaemic Activity in Low Dosed Streptozotocin Induced Diabetic Rats—
Induction of Diabetes in Rats:
Overnight starved male albino rats of Sprague Dawley strain were used and Diabetes was induced in the animals by single intraperitoneal injection of Streptozotocin at 60 mg/kg body weight dose prepared in 0.1M citrate buffer (pH 4.5). Fasting blood glucose level was measured by using a Glucometer (ACCU-CHEK II; Roche Diagnostics, USA) after 48 hours and animals showing blood glucose level above 300 mg/di were considered as diabetic.
The diabetic animals were divided into four groups (Group 1 to 4) each consisting 6 rats. Group 1 received 0.4 ml vehicle (1% gum acacia). Group 2 received the test compound 5 at an oral dose of 100 mg/kg/body weight. Group 3 was given compound 6 at an oral dose of 100 mg/kg/body weight. The standard antidiabetic drug Januvia was given to the animals of Group 4 at an oral dose of 50 mg/kg body weight. […] Food but not water was withheld from the cages during the course of experimentation. Percent hyperglycemic activity was determined by comparing the AUC (area under curve) of experimental groups with that of the vehicle treated control group.
as §2

[4] = target: T1, human recombinant PTP1B enzyme (Homo sapiens, UniProt P18031); experiment: Protein tyrosine phosphatase-1B assay (colorimetric kit BML-AK 822); type: biochemical; conditions: read-out: % Inhibition (PTP-1B)
T1 construct: purchased Enzo Life Sciences, USA BML-AK 822
T1 sequence (P18031 1-322 limits assumed): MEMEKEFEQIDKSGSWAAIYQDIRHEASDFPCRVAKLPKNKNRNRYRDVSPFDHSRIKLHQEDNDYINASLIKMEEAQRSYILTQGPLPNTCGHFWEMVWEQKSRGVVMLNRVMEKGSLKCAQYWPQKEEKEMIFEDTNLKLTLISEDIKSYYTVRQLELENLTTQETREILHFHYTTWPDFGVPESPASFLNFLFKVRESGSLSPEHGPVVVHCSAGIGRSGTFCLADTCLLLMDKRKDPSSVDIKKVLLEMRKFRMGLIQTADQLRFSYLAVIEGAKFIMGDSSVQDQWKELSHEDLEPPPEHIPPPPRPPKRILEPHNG
Method: Assay was done according to the Kit manufacturers protocol, in brief the reaction was carried out in 96 well flat bottomed microtiter plate by the addition of assay buffer, solution of test compounds and diluted PTP1B enzyme. Enzyme reaction was initiated by addition of 50 μl of warmed 2× substrate then incubated the plate at 30° C. for 30 min. After incubation for 30 min. Reaction was terminated by addition of 25 μl of biomol red reagent and mixed thoroughly by repeated pipetting. […] Volumes and dilution of other component were accordingly as instructed in the manual provided in the kit. PTP1B phosphatase acting on the phosphopeptide substrate and release phosphate. The detection of free phosphate released is based on classic Malachite green assay. After adding biomol red to reaction wells after 30 minutes of incubation as described earlier the plate was incubated for another 20 min to develop the colour. Absorbance was recorded at 620 nm. on a microplate reader.

[5] = 0 min pre treatment (fasting baseline)
[6] = Table 5, evaluated at 10 μM concentration

Structure (SMILES): N[C@@H](CC(=O)N1CCn2c(nnc2C(F)(F)F)C1)Cc1cc(F)c(F)cc1F [Januvia, reference compound]
Blood Glucose Profile 0 min ([1]; mean ± S.E.): 66.3 ± 3.12 mg/dL
Blood Glucose Profile 0 min ([1]; mean ± S.E., listed as januvia): 66.2 ± 0.73 mg/dL
Blood Glucose Profile 30 min ([1]; 30 min post sucrose, mean ± S.E.): 114.0 ± 8.21 mg/dL
Blood Glucose Profile 60 min ([1]; 60 min post sucrose, mean ± S.E.): 104.8 ± 5.70 mg/dL
Blood Glucose Profile 90 min ([1]; 90 min post sucrose, mean ± S.E.): 112.0 ± 7.30 mg/dL
Blood Glucose Profile 120 min ([1]; mean ± S.E.): 115.0 ± 7.67 mg/dL
Blood Glucose Profile 120 min ([1]; mean ± S.E., listed as januvia): 115.0 ± 7.67 mg/dL
% Antihyperglycaemic activity SLM ([1]; AUC vs control, oral): 35.0%
% Antihyperglycaemic activity STZ-S 0-5 h AUC ([2]; 0-5 h AUC, oral): 21.8%
% Antihyperglycaemic activity STZ-S 0-24 h AUC ([2]; 0-24 h AUC, oral): 23.8%
Blood Glucose Profile 0 min (Pre treatment) [2, 5]: 222.3 ± 16.2 mg/dL
Blood Glucose Profile 30 min (Post treatment) ([2]; 30 min): 455.0 ± 14.2 mg/dL
Blood Glucose Profile 60 min (Post treatment) ([2]; 60 min): 519.8 ± 16.0 mg/dL
Blood Glucose Profile 90 min (Post treatment) ([2]; 90 min): 469.3 ± 9.40 mg/dL
Blood Glucose Profile 120 min (Post treatment) ([2]; 120 min): 439.3 ± 14.2 mg/dL
Blood Glucose Profile 180 min (Post treatment) ([2]; 180 min): 377.6 ± 10.1 mg/dL
Blood Glucose Profile 240 min (Post treatment) ([2]; 240 min): 359.5 ± 10.1 mg/dL
Blood Glucose Profile 300 min (Post treatment) ([2]; 300 min): 337.6 ± 8.18 mg/dL
Blood Glucose Profile 1440 min (Post treatment) ([2]; 1440 min): 394.6 ± 8.34 mg/dL
Blood Glucose Profile 0 min (Pre treatment) [3, 5]: 341.4 ± 3.53 mg/dL
Blood Glucose Profile 30 min (Post treatment) ([3]; 30 min): 445.8 ± 13.0 mg/dL
Blood Glucose Profile 60 min (Post treatment) ([3]; 60 min): 497.4 ± 11.2 mg/dL
Blood Glucose Profile 90 min (Post treatment) ([3]; 90 min): 473.4 ± 11.2 mg/dL
Blood Glucose Profile 120 min (Post treatment) ([3]; 120 min): 392.0 ± 11.8 mg/dL
Blood Glucose Profile 180 min (Post treatment) ([3]; 180 min): 348.2 ± 16.7 mg/dL
Blood Glucose Profile 240 min (Post treatment) ([3]; 240 min): 300.4 ± 14.7 mg/dL
Blood Glucose Profile 300 min (Post treatment) ([3]; 300 min): 255.0 ± 16.9 mg/dL
Blood Glucose Profile 1440 min (Post treatment) ([3]; 1440 min): 484.4 ± 10.7 mg/dL
% Antihyperglycaemic activity STZ 0-5 h AUC ([3]; 0-5 h AUC, oral): 28.2%
% Antihyperglycaemic activity STZ 0-24 h AUC ([3]; 0-24 h AUC, oral): 27.4%

inhibition at 10 µM [4, 6]: 60.2%
Structure (SMILES): Cc1ccc(C(=O)Nc2ccc(S(=O)(=O)O)c3cc(S(=O)(=O)O)cc(S(=O)(=O)O)c23)cc1NC(=O)c1cccc(NC(=O)Nc2cccc(C(=O)Nc3cc(C(=O)Nc4ccc(S(=O)(=O)O)c5cc(S(=O)(=O)O)cc(S(=O)(=O)O)c45)ccc3C)c2)c1 [Standard Suramin, suramin, reference compound]

Structure (SMILES): COC(=O)c1c(SC)cc(-c2ccc(Br)cc2)c2c1-c1cn(-c3ccccc3)nc1CC2 [compound 1, methyl 6-(4-bromophenyl)-8-(methylthio)-2-phenyl-4,5-dihydro-2H-benzo[e]indazole-9-carboxylate]
inhibition at 10 µM [4]: 9.2%
melting point: 164 to 166 °C

inhibition at 10 µM [4, 6]: 8%
melting point: 159 to 162 °C
Structure (SMILES): COC(=O)c1c(SC)cc(-c2ccc(Cl)cc2)c2c1-c1cn(-c3ccccc3)nc1CC2 [compound 2, methyl 6-(4-chlorophenyl)-8-(methylthio)-2-phenyl-4,5-dihydro-2H-benzo[e]indazole-9-carboxylate]

inhibition at 10 µM [4, 6]: 8.43%
melting point: 172 to 174 °C
Structure (SMILES): COC(=O)c1c(SC)cc(-c2ccc(OC)cc2)c2c1-c1cn(-c3ccccc3)nc1CC2 [compound 3, methyl 6-(4-methoxyphenyl)-8-(methylthio)-2-phenyl-4,5-dihydro-2H-benzo[e]indazole-9-carboxylate]

inhibition at 10 µM [4, 6]: 16.4%
melting point: 173 to 175 °C
Structure (SMILES): COC(=O)c1c(SC)cc(-c2ccccc2)c2c1-c1cn(-c3ccccc3)nc1CC2 [compound 4, methyl 8-(methylthio)-2,6-diphenyl-4,5-dihydro-2H-benzo[e]indazole-9-carboxylate]

inhibition at 10 µM [4, 6]: 12.7%
melting point: 174 to 176 °C
Structure (SMILES): COC(=O)c1c(SC)cc(-c2cccs2)c2c1-c1cn(-c3ccccc3)nc1CC2 [compound 7, methyl 8-(methylthio)-2-phenyl-6-(thiophen-2-yl)-4,5-dihydro-2H-benzo[e]indazole-9-carboxylate]

melting point: 235 to 237 °C
Structure (SMILES): COC(=O)c1c(SC)cc(-c2ccc3ccccc3c2)c2c1-c1cn(-c3ccccc3)nc1C2 [compound 13, Methyl 5-(methylthio)-7-(naphthalen-2-yl)-2-phenyl-2,8-dihydroindeno[2,1-c]pyrazole-4-carboxylate]
